Values quoted from earlier work as cited in patent US20220265689A1, “HIV PRE-EXPOSURE PROPHYLAXIS” (THE UNITED STATES OF AMERICA ,AS REPRESENTED BY THE …, priority 2019, published 2022).

System: HIV-1
Details: HIV-1 T cells, activated PBMCs, macrophages

In the case of `CC(C)OC(=O)[C@H](C)N[P@](=O)(CO[C@H](C)Cn1cnc2c(N)ncnc21)Oc1ccccc1` [TAF, tenofovir alafenamide], the “enhanced anti-HIV activity relative to tenofovir” value is given as 500- to 10300 fold.
